Like-named read-outs stand apart in the source and are kept apart here.
Assays:
[1] = Plasma uridine and [uridine+uracil] in mice after oral administration of uridine prodrugs (Example 4); type: in vivo, Female CD-1 mice; settings: for systemic uridine delivery after oral administration: oral gavage, dose equimolar to 600 mg/Kg UTA, result in words
Source text: Chemical(s): HPMC (Hydroxypropyl)methyl cellulose (SIGMA-Aldrich: cat #H3785, CAS 9004-65-3); uridine triacetate (2′,3′,5′-tri-O-acetyluridine): UTA, Item Code D000156, Lot #Q000001095, made by Almac Sciences; 2′,3′,5′-tri-O-(acetoacetyl)uridine: Tri-AcAcU; 5′-O-(acetoacetyl)-2′,3′-di-O-acetyluridine: AcAcDAU; 2′,3′-di-O-acetyl-5′-O-heptanoyluridine: DA-HU. (Note: the AcAcDAU used in this experiment was the mixture of 9.4 parts 5′-O-(acetoacetyl)-2′,3′-di-O-acetyluridine and 1 part a combination of 5′-O-(acetoacetyl)-2′-O-acetyl-3′-O-formyluridine and 5′-O-(acetoacetyl)-3′-O-acetyl-2′-O-formyluridine from Example 1 above.)
(§1) Vehicle: Aqueous HPMC was used as a vehicle for oral administration of the uridine derivatives.
(§2) Dosing Formulation: UTA and other uridine derivatives were prepared in 0.75% HPMC. UTA and other uridine derivatives were added to 0.75% HPMC and homogenized to eliminate clumps. The suspension were made up to the desired volume and concentration and sonicated to disaggregate any small leftover clumps into fine particles. Suspensions were stored at 4° C. until use. Suspensions were used within 24 hrs of preparation.
Dosing: Mice received a dose of 600 mg/Kg UTA gavaged at 0.02 ml/g body weight. Other uridine derivatives were dosed in the same manner at concentrations containing amounts of uridine equimolar to UTA.
Animals: Female CD-1 mice.
The general initial layout for the experiment involved gavaging groups of 6 mice with uridine derivatives and obtaining blood samples at several times points thereafter (3 mice were bled for 2 time points (15 and 60 minutes), and another 3 mice were bled for the other 2 time points (30 and 120 minutes). Each experiment included an HPMC (vehicle only) time point with 3 mice to establish a baseline for blood uridine.
Blood samples were collected into plasma separation tubes, which were centrifuged immediately after blood collection, and aliquots of plasma were frozen for subsequent processing. Plasma was later deproteinated, and uridine and uracil were quantified by liquid chromatography using UV absorbance detection and mass spectrometry.
Delivery of uridine into the bloodstream was assessed by monitoring plasma uridine and the sum of uridine and uracil [uridine+uracil], as uracil is the first product in enzymatic degradation of uridine. Mice convert administered uridine to uracil more rapidly and extensively than do humans.

[2] = tested on: mice receiving 60 mg/kg/day 3-nitropropionic acid (progressive lethal mitochondrial energy failure); assay: Protection against mortality caused by 3-nitropropionic acid (Example 6, 11 day study); type: in vivo, Female CD-1 mice; settings: for Median Survival / % Survival: 3-NP 60 mg/kg/day ip, UTA 1000 mg/kg b.i.d. or AcAcDAU 1113.5 mg/kg b.i.d. oral; for survival time versus vehicle alone: UTA 1000 mg/kg or AcAcDAU 1113.5 mg/kg b.i.d.; for % Survival: end of 11 day study
Description: 5′-O-acetoacetyl-2′,3′-di-O-acetyluridine (AcAcDAU) delivers both uridine and acetoacetate (and beta-hydroxybutyrate [BHB] derived from acetoacetate) into the circulation after oral administration. A study was designed to compare relative efficacy of UTA versus AcAcDAU in a model of progressive lethal mitochondrial energy failure. Mitochondrial dysfunction was produced by daily administration of 3-nitropropionic acid (3-NP; 60 mg/kg/day) by intraperitoneal injection. 3-NP is an irreversible inhibitor of succinate dehydrogenase (Complex II of the mitochondrial electron transport chain). Daily dosing with 3-NP results in progressive diminution of mitochondrial capacity to maintain ATP production, eventually resulting in mortality from both neurodegeneration and cardiomyopathy.
Female CD-1 mice at approximately 16 weeks of age were divided into weight-matched groups of 10 mice each. All mice received daily intraperitoneal injections of 3-NP (60 mg/kg) in a volume of 0.01 ml per gram of body weight.
In addition to daily injections of 3-NP, the three groups of mice received 1) Vehicle; 2) UTA; or 3) AcAcDAU. This experiment used the AcAcDAU from Example 2. These treatments were administered orally, by gavage, in a volume of 0.02 ml per gram of body weight.
• 1. Vehicle Control (0.75% HPMC; hydroxypropylmethylcellulose) • 2. Uridine triacetate 1000 mg/kg BID (suspended in 0.75% HPMC) • 3. AcAcDAU 1113.5 mg/kg (molar equivalent to 1000 mg/kg UTA) BID (dissolved in 0.75% HPMC)
(§3) Body weights were recorded each day to adjust drug doses as mice lost weight during repeated treatment with 3-NP.
Survival times (median survival; the time point at which 50% of animals in a group had died) and percent survival at the end of the 11 day study were used to quantify and compare protective effects of the test agents.

[3] = tested on: mice receiving 60 mg/kg/day 3-nitropropionic acid (progressive mitochondrial failure); assay: Protection against mortality due to 3-nitropropionic acid, higher doses (Example 7, 10 day study); type: in vivo; settings: for survival time versus vehicle alone: UTA 2000 mg/kg or AcAcDAU 2227 mg/kg b.i.d.; for % Survival: end of 10 day study, 3-NP 60 mg/kg/day ip, UTA 2000 mg/kg b.i.d. or AcAcDAU 2227 mg/kg b.i.d. oral
Description: In this example the effect of higher doses of UTA (2000 mg/kg/dose) versus equimolar AcAcDAU (2227 mg/kg/dose) were compared in the same model system.
• 1. Vehicle Control (0.75% HPMC; hydroxypropylmethylcellulose) • 2. Uridine triacetate 2000 mg/kg BID (suspended in 0.75% HPMC)
AcAcDAU 2227 mg/kg (molar equivalent to 2000 mg/kg UTA) BID (dissolved in 0.75% HPMC). This experiment used the AcAcDAU from Example 2. The treatment schedule was as follows:
as §3
Percent survival of mice in each group of 10 mice at the end of the 10 day study were used to quantify and compare protective effects of the test agents.

[4] = Plasma uridine, uracil and beta-hydroxybutyrate in mice after oral administration of AcAcDAU (Example 5); type: in vivo, Female CD-1 mice; settings: 2350 mg/Kg oral, 15-120 min, result in words
Source text: An important feature of 5′-O-(acetoacetyl)-2′,3′-di-O-acetyluridine (AcAcDAU) is that it yields simultaneous or concurrent delivery of both uridine and acetoacetate via a single drug molecule. Acetoacetate in plasma is in equilibrium with beta-hydroxybutyrate (BHB) mirroring free NADH/NAD+ ratios in hepatic mitochondria, and heavily favoring BHB as the more prevalent of the two ketone bodies under normal physiological conditions. Moreover, BHB is stable after blood sampling and processing, whereas acetoacetate is labile. Therefore, plasma BHB was measured along with plasma uridine in mice receiving oral AcAcDAU.
Chemical(s): HPMC (Hydroxypropyl) methyl cellulose (SIGMA-Aldrich: cat #H3785, CAS 9004-65-3), 5′-O-(acetoacetyl)-2′,3′-di-O-acetyluridine (AcAcDAU; lot #432168B). This experiment used the AcAcDAU from Example 2.
as §1
as §2, with “HPMC. AcAcDAU was” for “HPMC. UTA and other uridine derivatives were”, “The suspensions” for “The suspension”
Dosing: Mice received a dose of 2350 mg/Kg AcAcDAU gavaged at 0.02 ml/g body weight. Control mice received only the 0.75% HPMC vehicle
General Experimental Design: The general layout for the experiment involved gavaging mice with AcAcDAU and obtaining blood samples at several time points thereafter (see table below for details). The experiment included a group with 2 mice gavaged with HPMC only and bled at 60 and 120 min for determination of baseline plasma uridine.
Mice received 0.02 ml/g bodyweight of a suspension (0.75% hydroxypropylmethylcellulose in water) with a concentration of AcAcDAU of 117 mg/ml for a dose of 2,350 mg/Kg body weight. […]

[5] = mice; cited from earlier work
[6] = humans; cited from earlier work

CC(=O)CC(=O)OC[C@H]1O[C@@H](n2ccc(=O)[nH]c2=O)[C@H](OC(=O)CC(C)=O)[C@@H]1OC(=O)CC(C)=O [Tri-AcAcU, 2′,3′,5′-tri-O-(acetoacetyl)uridine, reference compound]
systemic uridine delivery after oral administration [1]: relatively poor

CC(=O)OC[C@H]1O[C@@H](n2ccc(=O)[nH]c2=O)[C@H](OC(C)=O)[C@@H]1OC(C)=O [UTA, 2′,3′,5′-tri-O-acetyluridine, reference compound]
Median Survival [2]: 7 days
survival time versus vehicle alone ([2]; result in words): improved survival time
% Survival [2]: 30% (5/10)
survival time versus vehicle alone ([3]; result in words): improved survival time
% Survival [3]: 70% (7/10)

CCCCCCC(=O)OC[C@H]1O[C@@H](n2ccc(=O)[nH]c2=O)[C@H](OC(C)=O)[C@@H]1OC(C)=O [DA-HU, 2′,3′-di-O-acetyl-5′-O-heptanoyluridine, reference compound]
systemic uridine delivery after oral administration [1]: relatively poor

CC(=O)CC(=O)OC[C@H]1O[C@@H](n2ccc(=O)[nH]c2=O)[C@H](O)[C@@H]1O [AcAcU, 5′-O-(acetoacetyl)uridine]
systemic uridine delivery after oral administration [1]: delivered little uridine

CC(=O)CC(=O)OC[C@H]1O[C@@H](n2ccc(=O)[nH]c2=O)[C@H](OC(C)=O)[C@@H]1OC(C)=O [AcAcDAU, 5′-O-(acetoacetyl)-2′,3′-di-O-acetyluridine]
Median Survival [2]: >11 days
median survival time compared with UTA ([2]; AcAcDAU 1113.5 mg/kg b.i.d. vs equimolar UTA, result in words): longer
survival time versus vehicle alone ([2]; result in words): improved survival time
% Survival [2]: 50% (2/10)
survival at the 10 day time point compared with equimolar UTA ([3]; AcAcDAU 2227 mg/kg b.i.d. vs UTA 2000 mg/kg b.i.d., result in words): better survival
survival time versus vehicle alone ([3]; result in words): improved survival time
% Survival [3]: 100% (10/10)
delivery of uridine and uridine catabolites ([uridine+uracil]) into the circulation compared with equimolar uridine triacetate ([1]; oral, equimolar to 600 mg/Kg UTA, AcAcDAU was the 9.4:1 mixture from Example 1, result in words): more
Plasma beta-hydroxybutyrate after oral administration [4]: elevated
Plasma uracil after oral administration [4]: elevated
Plasma uridine after oral administration [4]: elevated

O=c1ccn([C@@H]2O[C@H](CO)[C@@H](O)[C@H]2O)c(=O)[nH]1 [uridine]
bioavailability (oral delivery) [5]: approximately 7%
bioavailability (oral delivery) [6]: approximately 7%

— patent publication US12577270B2, “2′,3′-diacetyluridine substituted with acetoacetyl at the 5′ position” (PHARMA CINQ, LLC, priority 2020, dated 2026)
